Experimental data published in PMC7596334 (Redox Biology, 2020).
pIC50: −log10 of the molar value.

Target: T1, 15LOX2 (Homo sapiens, UniProt O15296)
T1 sequence (O15296 1-676): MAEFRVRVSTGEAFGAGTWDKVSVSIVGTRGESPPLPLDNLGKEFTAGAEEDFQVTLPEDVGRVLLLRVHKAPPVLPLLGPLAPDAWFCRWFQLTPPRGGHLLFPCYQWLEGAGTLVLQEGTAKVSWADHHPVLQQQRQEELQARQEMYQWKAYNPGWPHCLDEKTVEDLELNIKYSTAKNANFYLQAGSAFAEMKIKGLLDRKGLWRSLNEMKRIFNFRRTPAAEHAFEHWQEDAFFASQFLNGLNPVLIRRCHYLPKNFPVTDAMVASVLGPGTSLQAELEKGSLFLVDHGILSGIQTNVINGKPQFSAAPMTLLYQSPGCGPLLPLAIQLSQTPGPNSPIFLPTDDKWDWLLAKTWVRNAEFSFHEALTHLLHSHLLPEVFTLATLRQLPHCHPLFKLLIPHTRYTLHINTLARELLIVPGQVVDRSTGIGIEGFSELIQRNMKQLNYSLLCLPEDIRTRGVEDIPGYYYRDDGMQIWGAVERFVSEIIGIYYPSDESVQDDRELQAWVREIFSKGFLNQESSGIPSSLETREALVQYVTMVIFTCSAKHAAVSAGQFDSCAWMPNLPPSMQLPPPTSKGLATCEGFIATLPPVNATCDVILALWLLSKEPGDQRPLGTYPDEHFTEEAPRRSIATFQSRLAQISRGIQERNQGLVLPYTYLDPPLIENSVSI
T1 sequence (P30086 2-187 partner): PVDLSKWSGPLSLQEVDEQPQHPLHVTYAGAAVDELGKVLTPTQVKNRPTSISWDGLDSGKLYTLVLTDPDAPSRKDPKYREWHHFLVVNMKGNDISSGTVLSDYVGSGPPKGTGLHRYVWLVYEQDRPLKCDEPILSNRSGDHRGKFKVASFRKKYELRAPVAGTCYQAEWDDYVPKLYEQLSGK
Type: biochemical

Q: With `CCOC(=O)c1ccc(NC2CCCCC2)c(N)c1` [Fer-1, Ferrostatin-1] as the compound, how does the pIC50 read?
A: 8.00
